Data from PubChem BioAssay AID179 (DTP/NCI, 2004).
The source made the active and inactive calls.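 How the source made its calls: active means compounds giving half or more protection of infected cells from virus-caused growth loss, again on retest; inactive means the rest.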

Tested on: CEM cells HIV-1 protection, formazan growth assay
Test: NCI AIDS Antiviral Assay
Details: for IC50: measured here: growth of uninfected CEM cells
Summary of the method: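 Protection of CEM cells against HIV-1 was scored from cell growth (soluble formazan) across five concentrations, with parallel uninfected cells. Lack of protection may reflect toxicity.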

SMILES | EC50 [µM] | IC50 [µM] | outcome
c1ccc(-c2sc(-c3ccccc3)c3c2C2CCC3C2)cc1 | > 200 | 36.3 | –
Cc1ccc(S(=O)(=O)N/N=C(\CCN2CCCC2)CC(c2ccccc2)c2c(O)c3ccccc3oc2=O)cc1 (centres undefined) | > 12 | > 12 | –
CCCCn1c(=O)[nH]c2c(N)ncnc21 | > 200 | > 200 | –
CCc1c2[n-]c(c1C)/C=c1\[n-]/c(c(C)c1CC)=C\c1[n-]c(c(CCC(=O)O)c1C)/C=c1\[n-]/c(c(C)c1CCC(=O)O)=C\2.[Zn] | > 21.4 | 13.5 | –
O=C(O)c1ccccc1/C=N/NC1=CS(=O)(=O)C=C1 | – | – | inactive
CCOP(=O)(OCC)/C(C#N)=C/C=C/c1ccco1 | > 646 | 148 | –
C1=C(c2ccccc2)C(N2CCOCC2)Oc2ccccc21 (centres undefined) | > 200 | 89.1 | –
ONC1=Nc2ccccc2C(=S)N2CSCC12 (centres undefined) | > 200 | > 200 | –
O=C(NC1=Nc2c(ncn2COCCO)S(=O)(=O)[N-]1)c1ccccc1.[Ag+] | > 200 | 3.55 | –
CCOC(=O)NNC(=O)NCCCCNC(=O)NNC(=O)OCC | > 200 | > 200 | –
CC(=O)N1N=C(c2ccc3ccccc3c2O)CC1c1ccc(N(C)C)cc1 (centres undefined) | > 50.1 | > 50.1 | –
Cc1nc2[nH]ncn2c(=O)c1CCCl | > 200 | 34.7 | –
COc1ccc(C2Oc3ccccc3C(=O)C2N)cc1 (centres undefined) | > 200 | 93.3 | –
O=[N+]([O-])c1ccc(-c2noc(-c3ccc(Cl)cc3)c2C2=NCCCN2)cc1 | > 35.5 | > 35.5 | –
O=CNC12C(=O)NC(=O)C1(C(=O)O)C21CCCCC1 (centres undefined) | > 200 | > 200 | –
O=C1CCCCC/C1=C\c1ccccc1 | > 200 | 52.5 | –
CC(=O)O[C@H]1CCC(C)=CCC[C@@]2(C)C(CC[C@@H]2[C@@H](C)/C=C/C(C)C)c2ccc(cc2C(=O)O)C1 (some centres undefined) | – | – | inactive
CCCCC1Sc2cc(OC)cc(N)c2NC1=O (centres undefined) | > 200 | 158 | –
C/C(CC(=O)Nc1ccc(NC(=O)C/C(C)=N\NC(N)=O)cc1)=N/NC(N)=O | > 240 | > 240 | –
NC(P(=O)(O)O)P(=O)(O)O | > 200 | > 200 | –
CN(CCC(N)CC(=O)NC1C=CC(n2ccc(N)nc2=O)OC1C(=O)O)C(=N)N (centres undefined) | > 200 | 31.6 | inactive
CCOc1ccc(OCC)c([P+](c2ccccc2)(c2ccccc2)c2ccccc2)c1 | – | – | inactive
COC(=O)C(=O)c1c2ccccc2n2ccc3c4ccccc4[nH]c3c12 | > 200 | 83.2 | –

SMILES | EC50 [µM] | IC50 [µM] | outcome
O=C(O)c1cccc(SS(=O)(=O)c2cccc(C(=O)O)c2)c1 | 27.5 | 162 | –
CS/C(c1ccccc1)=[N+](/C)[O-] | > 813 | 589 | –
c1ccc(C2=NN2c2ccccc2)cc1 | – | – | inactive
CCOC(=O)C(C)S(=O)(=O)O (centres undefined) | > 200 | > 200 | –
O=C(O)c1cocc1C(=O)O | – | – | inactive
C[CH2][Sn]([CH2]C)([S]CCS(=O)(=O)O)[S]CCS(=O)(=O)O | > 200 | 3.72 | –
C#Cc1ccccc1C(=O)OC | > 251 | > 251 | –
Oc1cccc(/C=C/c2cnnc3ccccc23)c1 | > 200 | 37.2 | –
CCOC(=O)/C(C(=S)Nc1ccccc1)=C(/N)N1CCCC1 | > 200 | 53.7 | –
CCCCCCCCCCCC[N+]12CC[N+](C)(CC1)CC2 | > 251 | 14.8 | –
CC(=O)OC1CCC2(COS(=O)(=O)c3ccc(C)cc3)C(=CCC3C2CCC2(C)C(C(C)CCCC(C)C)CCC32)C1 (centres undefined) | > 200 | > 200 | –
CCCCCCCCCCCCCCC1OC(=O)c2ccccc21 (centres undefined) | – | – | inactive
COC(=O)[C@@H]1CCCN1C(=O)C1Cc2c([nH]c3ccccc23)[C@@H](C=C(C)C)N1C(=O)OC(C)(C)C(Cl)(Cl)Cl (some centres undefined) | – | – | inactive
O=C1CCC2(c3ccc(Cl)cc3)Nc3cc([N+](=O)[O-])ccc3N12 (centres undefined) | > 21.9 | > 21.9 | –
N=C(N)c1ccc(N=NNc2ccc(C(=N)N)cc2)cc1 (tested in a mixture with another compound) | > 151 | 39.8 | –
COC(CNC(=O)C(C)NC(=O)/C=C/c1ccccc1)OC (centres undefined) | – | – | inactive
CCCNC(=O)N(CC(C)C)S(=O)(=O)c1ccc(Cl)cc1 | – | – | inactive
COC(=O)c1cc(C(=O)OC)c(CC(=O)C(=O)NC2C3CC4CC(C3)CC2C4)nc1CC(=O)C(=O)NC1C2CC3CC(C2)CC1C3 (centres undefined) | > 282 | > 282 | –
CCOC(=O)C1=C(C)C(C(=O)OC)[C@]2(C)C(C(=O)OCC)=C(O)C(C(=O)OC)[C@]12C (some centres undefined) | > 126 | > 126 | –
CCOC(=O)c1[nH]n(-c2ccccc2)c(=O)c1/C=N/C(=S)Nc1ccccc1 | > 200 | 51.3 | –
CN(C)C(=S)Sc1nsc(SC(=S)N(C)C)n1 | > 200 | > 200 | –
CSc1c(C(=O)Nc2ccc(C)cc2)c(N)[nH]c(=O)c1C#N | > 95.5 | 75.9 | –
C/C(=C/c1cc(=O)n(C)c2ccccc12)[N+](=O)[O-] | > 200 | 0.832 | –
